Results published in patent US8815590B2, “Composition and method for differentiation of human embryonic stem cells” (Stem Cells for Safer Medicines Limited, priority 2009, dated 2014).

Legend:
Human ESCs [SHEF3] [1] = assay: Differentiation towards definitive endoderm: immunostaining and RT-PCR of endodermal markers; assay type: cell-based; conditions: 2 μM, feeder-free on Matrigel in mTeSR1, up to 7 days
Method: Human ESCs [SHEF3] were maintained feeder-free on Matrigel® in chemically defined mTeSR1® media and treated with 2 μM 1M for the days indicated. (A) Expression of the endodermal markers FoxA2, Sox17 and HNF4α were analysed by immunofluorescence. Treatment with compound 1M led to expression of all markers after 7 days treatment. Scale bar represents 50 μm. (B) ESCs were harvested on day 7 following treatment with 1M for the indicated days. RNA was extracted and RT-PCR analyses performed using primers selective for the genes indicated. […] (C) BIO induces differentiation towards the DE. SHEF3 ESCs were treated with 2 μM BIO for the times indicated and immunostained with antibodies towards the endodermal markers FOXA2, SOX17 and HNF4α. (D) Compound 1L also induces differentiation towards the DE. SHEF1 ESCs were treated with 2 μM 1L for the times indicated and immunostained with antibodies towards the endodermal markers FOXA2 and HNF4α.
ESCs were cultured feeder-free on Matrigel®-coated plates in mTeSR1® media, supplemented with 2 μM compound 1M for 7 days with the media being refreshed every-other day. Definitive endoderm cultures were passaged with collagenase (1 mg/ml) and plated at a ratio of 1:10 on Matrigel® in KO DMEM supplemented with glutamine, penicillin/streptomycin, NEAA, 2% (v/v) KOSR, 10 ng/ml HGF (Peprotech) and 10 ng/ml FGF4 and cultured for a further 7 days with the media being refreshed every-other day. To allow for maturation of the HLCs, 10 ng/ml oncostatin M (Peprotech) and 10^−7 dexamethasone (SIGMA) were added to the above media and the cells were cultured for an additional 7 days with fresh media every-other day.
(§1) Total RNA was isolated and purified using TRIzol Reagent (Invitrogen), following the manufacturer's instructions. All RNA samples were treated with DNase I (Ambion) before cDNA synthesis to eliminate any contaminating genomic DNA. RNA (1 μg) was reverse transcribed into cDNA using Oligo(dT)15 (Promega) and SuperScript II (Invitrogen). Gene-specific PCR was carried out using primers and annealing temperatures outlined in Table 2.
ESCs were cultured on Matrigel®-coated lummox (Greiner Bio One) trays and fixed with 4% paraformaldehyde (PFA) for 20 minutes at room temperature. Cells were permeabilised in PBST (with 0.1% Triton X-100) and blocked in 10% blocking reagent (Roche) before incubating with primary antibodies in 2% blocking reagent overnight at 4° C. After washing in PBS, cells were incubated with FITC-conjugated secondary antibodies (Vector Labs) for 3 hours at room temperature. After further washing, the cells were stained with 4,6-diamidino-2-phenylindole (DAPI) (SIGMA), washed again and mounted in MOWIOL. […]

ESCs [SHEF1] [2] = assay: RT-PCR of Activin/Nodal pathway and differentiation marker genes; assay type: cell-based, human; conditions: 10 μM with 2 μM 1M
Method: (§2) (A) RNA was extracted from ESCs [SHEF1] cultured for 7 days in the presence of 2 μM 1M for the days indicated. RT-PCR analyses were performed using primers selective for the genes indicated. (B) ESCs [SHEF1] were treated with 2 μM 1M alone or in combination with 10 μM SB43125 (S) for the days indicated and RT-PCR performed on the extracted RNA. (C) ESCs [SHEF3] were treated with 1M alone or in combination with 100 ng/ml Activin A (A) for the days indicated and RT-PCR performed. (D). ESCs [SHEF1] were treated with 2 μM 1M, or 100 ng/ml ActivinA (A) alone or in combination with 1M for 5 days. Expression of the endoderm markers FoxA2 and HNF4α was analysed by immunofluorescence. The number of percent positive cells averaged from 3 fields of view +/−SD are indicated. Scale bar represents 50 μm. (E) ESCs [SHEF1] were treated with 2 μM 1M, or 100 ng/ml ActivinA (A) alone or in combination with 1M for 5 days. Expression of the DE marker CXCR4 was alaysed by flow cytometry.
as §1

Human ESCs [SHEF3] [3] = assay: Flow cytometry of pluripotency surface markers Tra-1-60 and SSEA4 in treated human ESCs; assay type: cell-based
Method: (A) Images show typical colonies formed following the indicated treatments. The scale bars represent 1 mm. (B) Histogram plots of ESCs analysed by flow cytometry following immunostaining with antibodies against the pluripotency markers Tra-1-60 or SSEA4. (C) RNA was extracted from the cells and RT-PCR analyses performed using primers specific to the pluripotency genes OCT4 and NANOG and to the house-keeping gene β-ACTIN. (D) Western blot analysis was performed on protein extracted from the cells and immunoblotted with antibodies specific to Oct4. Blots were stripped and reprobed with anti-Gapdh antibodies to assess equal loading. […] SHEF3 cells were treated with the indicated concentration of 1O for 7 days. Images show typical colony morphology. (F) Histogram plots of ESCs analysed by flow cytometry following staining with Tra-1-60 and SSEA4 antibodies. Analysis of percent positive cells and mean fluorescent intensity are indicated on the plots. (G) RT PCR analysis for the expression of OCT4 and NANOG. Bands for each of the genes were from the same gel with intervening samples removed. (H) Western blot analysis of OCT4 protein expression. Proteins bands were from the same immunoblot with intervening samples removed.
(§3) SHEF1 and SHEF3 human ESCs were obtained from the UKSCB and cultured as outlined in their protocols. Briefly, ESCs were maintained on mitomycin C-inactivated mouse embryonic fibroblast (MEF) feeder layers in KnockOut Dulbecco's modified Eagle's medium (KO DMEM) (Invitrogen) supplemented with 20% (vol/vol) KO serum replacement (KOSR; Invitrogen), 1 mM non-essential amino acids (NEAA; Invitrogen), 1 mM glutamine (Invitrogen), 0.1 mM 2-mercaptoethanol (BioRad), penicillin/streptomycin, and 4 ng/ml recombinant human FGF2 (Peprotech). Cultures were passage using 1 mg/ml collagenase at a ratio of 1:8 to 1:12 every 7 days. Cultures were transferred to a feeder-free, chemically defined culture system on ESC-qualified Matrigel® (BD) coated plates in mTeSR1® (Stem Cell Technologies) media according to Stem Cell Technologies' protocol.
ESCs were trypsinised (0.05% Trypsin-EDTA) for 10 minutes at 37° C. and resuspended in PBS containing 2% (v/v) FBS (FBS/PBS). […] Cells were washed and stained with secondary fluorescein isothiocyanate (FITC)-conjugated antibodies (SIGMA) for a further 30 minutes, if required. Flow cytometry was performed using a FACSCanto cytometer (Becton Dickenson) and the data were analysed with FACSDiva software. Dead cells were excluded for analyses based on forward and side scatter parameters.

Human ESCs [SHEF3] [4] = assay: Colony morphology, RT-PCR and Western blot of OCT4/NANOG in treated human ESCs; assay type: cell-based
Method: Human ESCs [SHEF3] were treated with the indicated concentrations of BIO or compound 1M or left untreated as a control and cultured for 7 days. (A) Images show typical colonies formed following the indicated treatments. The scale bars represent 1 mm. (B) Histogram plots of ESCs analysed by flow cytometry following immunostaining with antibodies against the pluripotency markers Tra-1-60 or SSEA4. (C) RNA was extracted from the cells and RT-PCR analyses performed using primers specific to the pluripotency genes OCT4 and NANOG and to the house-keeping gene β-ACTIN. (D) Western blot analysis was performed on protein extracted from the cells and immunoblotted with antibodies specific to Oct4. Blots were stripped and reprobed with anti-Gapdh antibodies to assess equal loading. (E) Compound 1O also induces differentiation of human ESCs. SHEF3 cells were treated with the indicated concentration of 1O for 7 days. Images show typical colony morphology. (F) Histogram plots of ESCs analysed by flow cytometry following staining with Tra-1-60 and SSEA4 antibodies. Analysis of percent positive cells and mean fluorescent intensity are indicated on the plots. (G) RT PCR analysis for the expression of OCT4 and NANOG. Bands for each of the genes were from the same gel with intervening samples removed. (H) Western blot analysis of OCT4 protein expression. Proteins bands were from the same immunoblot with intervening samples removed.
as §3, §1
Cell lysates (20 μg) were prepared, separated by SDS-PAGE and transferred to nitrocellulose as described previously (Welham et al., 1994). Immunoblotting was carried out using primary antibodies at the following dilutions: 1:5,000 anti-Oct4 (Santa Cruz Biotechnology; sc-9081); 1:2000 anti-GAPDH (sc-20357); 1:10,000 anti-phospho (Ser33/37/Thr41) β-catenin (Cell signalling Technology; CST 9561); 1:1000 anti-β-catenin (CST 9562). Anti-rabbit antibodies conjugated to horseradish peroxidise (DAKO) were used at 1:10,000 and blots were developed using ECL Advance (GE Healthcare) or ChemiGlow (Alpha Innotech) according to manufacturer's directions. Images were captured and analysed using the ImageQuant RT ECL system (GE Healthcare). Blots were stripped and reprobed as described previously (Welham et al., 1994).

ESCs = assay: RT-PCR of Activin/Nodal pathway and differentiation marker genes; assay type: cell-based, human; conditions: 100 ng/ml Activin A with 1M, 7 days, SHEF3
Method: as §2, §1

ESCs [SHEF1] [5] = assay: Flow cytometry of the DE marker CXCR4; assay type: cell-based, human; conditions: 2 μM 1M, 100 ng/ml Activin A, alone or in combination, 5 days
Method: as §2
ESCs were trypsinised (0.05% Trypsin-EDTA) for 10 minutes at 37° C. and resuspended in PBS containing 2% (v/v) FBS (FBS/PBS). […] Flow cytometry was performed using a FACSCanto cytometer (Becton Dickenson) and the data were analysed with FACSDiva software. […]

ESCs [SHEF1] [6] = assay: Immunofluorescence of endoderm markers FoxA2 and HNF4α, percent positive cells; assay type: cell-based, human; conditions: 5 days
Method: as §2
ESCs were cultured on Matrigel®-coated lummox (Greiner Bio One) trays and fixed with 4% paraformaldehyde (PFA) for 20 minutes at room temperature. Cells were permeabilised in PBST (with 0.1% Triton X-100) and blocked in 10% blocking reagent (Roche) before incubating with primary antibodies in 2% blocking reagent overnight at 4° C. After washing in PBS, cells were incubated with FITC-conjugated secondary antibodies (Vector Labs) for 3 hours at room temperature. After further washing, the cells were stained with 4,6-diamidino-2-phenylindole (DAPI) (SIGMA), washed again and mounted in MOWIOL. The following antibodies and dilutions were used: goat-anti-FoxA2 (1:100, R&D. Systems), mouse anti-Sox17 (1:50, R&D Systems), rabbit anti-HNF4α (1:100, Santa Cruz), rabbit anti-AFP (1:100, DAKO), rabbit anti-TTR (1:100, DAKO). Images were captured on a Zeiss 510 Meta confocal microscope using a 40× objective.

[7] = MEF culture, concentration 0.5, 7 days
[8] = MEF culture, concentration 2, 7 days
[9] = mTeSR1, concentration 0.5, 7 days
[10] = mTeSR1, concentration 2, 7 days
[11] = 100 ng/ml Activin A with 2 μM 1M

O=C1NC(=O)C2=C1c1cn(c3ccccc13)CCOCCOCCOCCn1cc2c2ccccc21 [1L]
Differentiation towards the DE (immunostaining FOXA2, SOX17, HNF4α) (Human ESCs [SHEF3] [1]): induced differentiation towards the DE

NC(=O)c1ccc(-c2nc(-c3ccccn3)c(-c3ccc4c(c3)OCO4)[nH]2)cc1 [SB43125, reference compound]
Effect on 1M-induced GSC and FOXA2 expression (ESCs [SHEF1] [2]): dramatically reduced
Inhibition of 1M-induced NODAL expression (ESCs [SHEF1] [2]): only partially inhibited

O=C1NC(=O)C2=C1c1cn(c3ccccc13)CCCCC(O)CCCCn1cc2c2ccccc21 [1O]
Expression of pluripotency markers Tra-1-60 and SSEA4 by flow cytometry (in words) (Human ESCs [SHEF3] [3]; 7 days treatment): decreased expression of Tra-1-60 and SSEA4
OCT4 and NANOG gene expression (RT-PCR) (Human ESCs [SHEF3] [4]; 7 days treatment): loss of OCT4 and NANOG gene expression
Oct4 protein expression (Western blot) (Human ESCs [SHEF3] [4]; 7 days treatment): loss of OCT4 protein expression
Proliferation and differentiation of human ESCs (colony morphology) (Human ESCs [SHEF3] [4]; 7 days, on MEFs in KO DMEM or on Matrigel in mTeSR1, 1M at 2 μM): induced similar differentiation

O=C1Nc2cc(Br)ccc2/C1=C1/Nc2ccccc2/C1=N\O [BIO, reference compound]
Tra1-60 % pos (Human ESCs [SHEF3] [3]; MEF culture, concentration 0.5 (unit not given), 7 days): 82.2%
SSEA4 % pos (Human ESCs [SHEF3] [3]; [7]): 91.3%
SSEA4 mean (mean fluorescence intensity) (Human ESCs [SHEF3] [3]; [7]): 6002
Tra1-60 mean (mean fluorescence intensity) (Human ESCs [SHEF3] [3]; [7]): 9497
Tra1-60 % pos (Human ESCs [SHEF3] [3]; MEF culture, concentration 2 (unit not given), 7 days): 75.1%
SSEA4 % pos (Human ESCs [SHEF3] [3]; [8]): 83.3%
SSEA4 mean (mean fluorescence intensity) (Human ESCs [SHEF3] [3]; [8]): 4006
Tra1-60 mean (mean fluorescence intensity) (Human ESCs [SHEF3] [3]; [8]): 7441
Tra1-60 % pos (Human ESCs [SHEF3] [3]; mTeSR1 (feeder-free, Matrigel), concentration 0.5, 7 days): 73.7%
Tra1-60 % pos (Human ESCs [SHEF3] [3]; mTeSR1 (feeder-free, Matrigel), concentration 2, 7 days): 40.5%
SSEA4 % pos (Human ESCs [SHEF3] [3]; [9]): 69.2%
SSEA4 mean (mean fluorescence intensity) (Human ESCs [SHEF3] [3]; [9]): 5871
Tra1-60 mean (mean fluorescence intensity) (Human ESCs [SHEF3] [3]; [9]): 8194
SSEA4 % pos (Human ESCs [SHEF3] [3]; [10]): 72.5%
SSEA4 mean (mean fluorescence intensity) (Human ESCs [SHEF3] [3]; [10]): 1410
Tra1-60 mean (mean fluorescence intensity) (Human ESCs [SHEF3] [3]; [10]): 890
Differentiation towards the DE (immunostaining FOXA2, SOX17, HNF4α) (Human ESCs [SHEF3] [1]): induced differentiation towards the DE

B1: Activin A: member of the TGFβ superfamily which binds to the same receptors as Nodal, used to mimic Nodal activity in vitro (protein, UniProt P08476 311-426, looked up)
Inhibin beta A chain: GLECDGKVNICCKKQFFVSFKDIGWNDWIIAPSGYHANYCEGECPSHIAGTSGSSLSFHSTVINHYRMRGHSPFANLKSCCVPTKLRPMSMLYYDDGQNIIKKDIQNMIVEECGCS
modifications: Inhibin beta A chain homodimer
1M-induced expression of AFP in the presence of Activin A (ESCs): lost
CXCR4 expression by flow cytometry (ESCs [SHEF1] [5]): 26.5%
Effect of Activin A on generation of 1M-induced HNF4α expressing cells (ESCs [SHEF1] [6]; [11]): inhibit generation of 1M-induced HNF4α expressing cells
Effect of addition of Activin A on 1M-induced FoxA2 expression (ESCs [SHEF1] [6]; [11]): did not further enhance
FOXA2 expressing cells in the entire population (ESCs [SHEF1] [6]; 2 μM 1M or 100 ng/ml Activin A): 8%
HNF4α-expressing cells (ESCs [SHEF1] [6]; 2 μM 1M or 100 ng/ml Activin A): 3%
